Assay results as given in patent US10604473B2, “Lipids that increase insulin sensitivity and methods of using the same” (Beth Israel Deaconess Medical Center, Inc., priority 2013, dated 2020).

Assays:
Human islets = assay: Glucose-stimulated insulin secretion in primary human islets; type: cell-based
Procedure: Two human donors provided cells used in these studies. Donor1 was a person, 5′0″, 157 lbs, with a BMI of 30.5, HbA1C was 5.8, who died from a stroke, but it was witnessed and they had no downtime. Islets were 80% pure and 95% viable. After arrival, islets were incubated overnight in human islet media before stimulation with glucose in presence and absence of 5-PAHSA (lipid A-5). Note 1 IU of Human Insulin=6 nmol=34.8 μg Insulin.
Human islets were divided into ten groups [100 islets per condition]
A] Low glucose [2.5 mM]; B] High glucose [20.0 mM]; C] Low glucose [2.5 mM]+2.5 μL/mL Methanol; D] High glucose [20.0 mM]+2.5 μL/mL Methanol; E] Low glucose+20 μM Lipid A-5; F] High glucose+20 μM Lipid A-5; G] Low glucose+50 μM Lipid A-5; H] High glucose+50 μM Lipid A-5.
Islets were cultured overnight in Human Islet media and next day incubated with KRB buffer for 4 h prior to glucose stimulation.
Following KRB incubation, islets were stimulated with glucose [2.5 mM & 20.0 mM] in the presence and absence of Lipid A-5 [20 & 50 μM] for 45 min
At the end of glucose stimulation the amount of insulin released [μ IU/mL] into the media was measured using Human Insulin ELISA kit. And the insulin content from the islets were extracted to express insulin released into the media as μ IU/mL/islet content.
Donor 2 was a person, 183 cm, 176 lbs, with a BMI of 23.9, HbA1C was 5.0, died from a stroke, but it was witnessed and they had no downtime. Islets were 85% pure and 95% viable. After arrival, islets were incubated overnight in human islet media before stimulation with glucose in presence and absence of 5-PAHSA (Lipid A-5).
Human islets were divided into […] [75 islets per condition]: A] Low glucose [2.5 mM]; B] High glucose [20.0 mM]; C] Low glucose [2.5 mM]+2.5 μL/mL Methanol; D] High glucose [20.0 mM]+2.5 μL/mL Methanol; E] Low glucose+20 μM Lipid A-5; F] High glucose+20 μM Lipid A-5.
Following KRB incubation, islets were stimulated with glucose [2.5 mM & 20.0 mM] in the presence and absence of Lipid A-5 [20 μM] for 45 min.

[1] = FAHFA hydrolysis assay (9-PAHSA to 9-HSA), liver lysate; settings: liver lysate 1 mg/ml protein, 100 μM, 37° C., two hours
Procedure: To establish whether or not FAHFA can be enzymatically degraded, an LC-MS-based in vitro activity assay was developed to measure the hydrolysis of 9-PAHSA to 9-HSA. […] Liver lysate (1 mg/ml protein) was incubated with 100 μM 9-PAHSA at 37° C. for two hours. The reaction mixture was then extracted with one volume ethyl acetate, concentrated under nitrogen gas stream, and reconstituted in 1:1 chloroform:methanol for MS analysis.

Compound | insulin secretion (Human islets; 2.5 mM glucose, 5-PAHSA 20 μM) | insulin secretion response (Human islets; 20 mM glucose, 5-PAHSA 20 μM) | Glucose Stimulated Insulin Secretion (Human islets; Donor 1) | Glucose Stimulated Insulin Secretion (Human islets; Donor 2) | hydrolysis of 9-PAHSA to 9-HSA [1]
CCCCCCCCCCCCCCCC(=O)OC(CCCCCCCCCCCCC)CCCC(=O)O (centres unmarked) [5-PAHSA] | had no effect on insulin secretion | augmented the insulin secretion response | induces Glucose Stimulated Insulin Secretion | induces Glucose Stimulated Insulin Secretion | –
CCCCCCCCCCCCCCCC(=O)OC(CCCCCCCCC)CCCCCCCC(=O)O (centres unmarked) [9-PAHSA, palmitoyl-9-hydroxystearic acid] | – | – | – | – | Substantial 9-HSA production
